≈ marks a conversion by molar mass, not a printed value. Where “and” joins values, the source holds several entries; their conditions need not be identical. Identical values can stand only once. Like-named read-outs stand apart in the source and are kept apart here.
How the values were obtained:
Staphylococcus aureus = assay: Antimicrobial activity of ointment / petroleum jelly suspensions (FIG. 2, Panel A); assay type: cell-based; conditions: subinhibitory concentration in petroleum jelly, S. aureus
Excerpt: The addition of an RnpA inhibitor, such as RNPA2000, to mupirocin ointment (Teva Pharmaceuticals USA (North Wales, Pa.)) improved the antimicrobial efficacy of the ointment and is also effective against mupirocin resistant S. aureus. […] See FIG. 2, Panel A, upper left picture. […] See FIG. 2, Panel A, upper right picture.

S. aureus strain UAMS-1 = assay: Fractional Inhibitory Concentration testing with mupirocin; assay type: cell-based; conditions: combined with mupirocin, S. aureus UAMS-1, Mueller Hinton broth, 18 hours; synergistic FIC≤0.5
Description: The RNase P inhibitors described herein were tested for Fractional Inhibitory Concentration (FIC) in the presence of mupirocin. FIC testing was performed to determine the combined effects of mupirocin and the RnpA inhibitors as described herein. Individual wells of a 96-well microtiter plate were inoculated with 1×10^5 CFU of S. aureus strain UAMS-1 in a Mueller Hinton broth. Each row of the plate contained increasing concentrations of RNPA1000 or RNPA2000 (two-fold increments; 0, 0.004, 0.008, 0.016, 0.03, 0.06, 0.125, 0.25, 0.5, 1, 2, or 4×MIC), whereas each column contained increasing concentrations of the indicated antibiotic (two-fold increments; 0, 0.06, 0.125, 0.25, 0.5, 1, 2, or 4×MIC). Plates were incubated for 18 hours at 37° C., and growth was detected by the unaided eye. The FIC was determined using the following formula: (MIC of Drug A in Combination/MIC of Drug A Alone)+(MIC of Drug B in Combination/MIC of Drug B Alone)=FIC. A synergistic interaction was defined as an FIC value≤0.5, no interaction as an FIC of 0.5-4, or an antagonistic interaction FIC>4.

[1] = tested on: Staphylococcus aureus strain UAMS-1; assay: Antimicrobial susceptibility testing (MIC, broth microdilution); assay type: cell-based; conditions: S. aureus UAMS-1, Mueller Hinton broth, 37° C.
Outline: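 Broth microdilution in Mueller Hinton broth, 37 °C for 18 h, with about 1×10^5 CFU of strain UAMS-1 per well and doubling compound concentrations from 0 to 256 μg mL−1. The endpoint was the lowest concentration without visible growth. Wells at or above that level were plated and counted for bactericidal activity.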

[2] = tested on: RNase P-mediated tRNA processing; assay: Precursor tRNA processing within bacterial cells (FIG. 1, Panel B); assay type: cell-based
Excerpt: Mupirocin is a generically available antibiotic that inhibits isoleucyl tRNA synthetase in bacterial cells. The enzyme charges tRNA molecules, allowing them to participate in protein translation. RnpA is an enzyme, which together with the ribozyme, rnpB, forms RNase P riboprotein complex that prepares precursor tRNA molecules for charging (it works upstream of tRNA synthetase in the tRNA processing pathway).

[3] = biological target: T1, S. aureus RNase P (RnpA+rnpB) (Staphylococcus aureus, UniProt P0A0H5); assay: RNase P activity assay (precursor tRNA processing); assay type: biochemical
T1 sequence (P0A0H5 1-117): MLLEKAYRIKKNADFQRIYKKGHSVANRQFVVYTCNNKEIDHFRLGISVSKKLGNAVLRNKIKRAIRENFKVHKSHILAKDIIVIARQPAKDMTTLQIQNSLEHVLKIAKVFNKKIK
Outline: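 Reconstituted RnpA+rnpB (1.25 pmol) processed 10 pmol heat-denatured ptRNATyr for 15 min at 37 °C in low-salt (5 mM MgCl2) or high-salt (100 mM MgCl2, 800 mM NH4Cl) Tris pH 8.0 buffer with inhibitor or DMSO. Mature tRNATyr quantified by urea-PAGE densitometry, expressed as % of DMSO control.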

RnpA = biological target: T2, RnpA (Staphylococcus aureus, UniProt P0A0H5); assay: RnpA mRNA degradation activity assay; assay type: biochemical; conditions: RnpA mRNA degradation, gel densitometry; read-out: RnpA IC50
T2 sequence (P0A0H5 1-117): T1 sequence (P0A0H5 1-117)
Outline: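 Total S. aureus RNA (1 μg) or in vitro transcribed spa mRNA (1 pmol) was incubated with 20 pmol RnpA plus compound for 15–30 min at 37° C in 50 mM Tris-HCl pH 8.0, 2 mM NaCl, 2 mM MgCl2. RNA was resolved on denaturing formaldehyde-agarose gels and quantified by densitometry. Percent inhibition is relative to RNA-alone and RnpA+DMSO controls.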

CC(C)c1ccc(OCC(=O)NNC(=S)NC(=O)c2ccco2)cc1 [RNPA2000]
antimicrobial properties in petroleum jelly (Staphylococcus aureus): no antimicrobial properties | FIC with Mupirocin (S. aureus strain UAMS-1): 0.44 | MIC ([1]; 18 hours, listed as MC-220000): 8 µg/mL (≈ 22.1 µM) | MIC ([1]; Staphylococcus aureus, UAMS1, 18 h, read-out: MIC): 16 µg/mL (≈ 44.3 µM) | precursor tRNA processing within bacterial cells [2]: inhibits precursor tRNA processing | precursor tRNA processing in vitro ([3]; FIG. 1, Panel A): inhibits precursor tRNA processing | IC50 ([3]; ptRNATyr processing, gel densitometry, read-out: RNase P IC50): 140 µM and 300 µM | IC50 (RnpA): 275 µM and 180 µM

— patent US10028931B2, “Synergistic compositions for treating microbial infections” (UNIVERSITY OF ROCHESTER, priority 2014, dated 2018)
